The test concerns the target T1, MAGE-A11:PCF11 interaction (GST-MAGE-A11 and FAM-PCF11_4) (Homo sapiens, UniProt P43364).
T1 construct: GST-MAGE-A11 MHD (human MAGE-A11 MHD amino acid 218-429); made in house; host or cells: E. coli BL21(DE3)
T1 sequence (P43364 218-429): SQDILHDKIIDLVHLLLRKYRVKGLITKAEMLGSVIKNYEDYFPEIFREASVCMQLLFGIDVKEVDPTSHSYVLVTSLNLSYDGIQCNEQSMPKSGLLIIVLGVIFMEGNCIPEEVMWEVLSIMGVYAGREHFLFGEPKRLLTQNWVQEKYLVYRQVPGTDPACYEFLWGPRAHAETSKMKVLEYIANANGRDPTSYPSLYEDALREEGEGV
As to the kind of experiment: TR-FRET primary / single point screen at 15 µM. It is filed as binding. The method, boiled down: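 Single-point screen at 15 µM final compound in 50 mM Tris pH 7.5, 20 mM MgCl2, 0.1 mg/ml BSA, 1 mM DTT, with 200 nM FAM-PCF11_4, 5 nM Tb-anti-GST and 5 nM GST-MAGE-A11. After 90 min at room temperature, the 520/490 nm TR-FRET ratio (340 nm excitation) gave %Inhibition against no-MAGE-A11 and DMSO controls.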

The mark [1] stands for this setting: single point TR-FRET screening of quinoline compounds against MAGE-A11:PCF11, 15 µM.
[2] abbreviates: single point TR-FRET screening of 797 quinoline compounds against MAGE-A11:PCF11.

Turning to `CCCN(CCCNc1c2ccc(Cl)cc2nc2ccc(OC)cc12)Cc1cc(F)cc(F)c1O` [SJ000522982], the “percent inhibition (TR-FRET)” value under setting [1] turned out to be 2.045. Take `CCCN(CCCNc1c2ccc(Cl)cc2nc2ccc(OC)cc12)CCC(C)(C)C` [SJ000522983]: the “percent inhibition (TR-FRET)” value under setting [2] is -233.73. Regarding `CCCN(CCCNc1c2ccc(Cl)cc2nc2ccc(OC)cc12)Cc1cc(OC(F)(F)F)ccc1OC` [SJ000522984], the “percent inhibition (TR-FRET)” value under setting [1] is recorded as -36.7058. Regarding `CCCN(CCCNc1c2ccc(Cl)cc2nc2ccc(OC)cc12)Cc1cc(C(F)(F)F)ccc1OC` [SJ000522985], the “percent inhibition (TR-FRET)” value under setting [1] is listed as -46.0179. `CCCN(CCCNc1c2ccc(Cl)cc2nc2ccc(OC)cc12)Cc1cccc(C(F)(F)F)c1` [SJ000522986]: the “percent inhibition (TR-FRET)” value under setting [1] was 16.1546.

On to `CCCN(CCCNc1c2ccc(Cl)cc2nc2ccc(OC)cc12)Cc1cccn1C` [SJ000522987], for which, under setting [2], the “percent inhibition (TR-FRET)” value is -302.626.

Regarding `CCCN(CCCNc1c2ccc(Cl)cc2nc2ccc(OC)cc12)Cc1nccs1` [SJ000522988], under setting [2], the “percent inhibition (TR-FRET)” value is recorded as -117.531. For `CCCN(CCCNc1c2ccc(Cl)cc2nc2ccc(OC)cc12)Cc1cc(Br)cs1` [SJ000522989], the “percent inhibition (TR-FRET)” value under setting [1] is -56.7027. Still for that read-out and setting: the same measure for `CCCN(CCCNc1ccnc2cc(Cl)ccc12)Cc1c[nH]c(C)n1` [SJ000522990]: 4.828; for `CCCN(CCCNc1ccnc2cc(Cl)ccc12)Cc1cc2ccccc2o1` [SJ000522991]: 9.295; for `CCCN(CCCNc1ccnc2cc(Cl)ccc12)Cc1c[nH]c2ccc(F)cc12` [SJ000522992]: 29.3392. On the same count and under the same terms, the same measure for `CCCN(CCCNc1ccnc2cc(Cl)ccc12)Cc1cc2ccccc2s1` [SJ000522993]: 5.864.

Take `CCCN(CCCNc1ccnc2cc(Cl)ccc12)Cc1ccc(OC)c(F)c1` [SJ000522994]: the “percent inhibition (TR-FRET)” value under setting [1] was 15.1623.

On to `CCCN(CCCNc1ccnc2cc(Cl)ccc12)Cc1cn(C)c2ccccc12` [SJ000522995], for which, under setting [1], the “percent inhibition (TR-FRET)” value is on record as -1.532. Still for that read-out and setting: the same measure for `CCCN(CCCNc1ccnc2cc(Cl)ccc12)Cc1cc(OC)ccc1F` [SJ000522996]: 26.6585; for `CCCN(CCCNc1ccnc2cc(Cl)ccc12)Cc1nc(C)cs1` [SJ000522997]: 3.413; for `CCCN(CCCNc1ccnc2cc(Cl)ccc12)Cc1ccc(OC(F)(F)F)cc1` [SJ000522999]: 22.7376. Same read-out and setting: with `C#Cc1ccccc1CN(CCC)CCCNc1ccnc2cc(Cl)ccc12` [SJ000523000] the figure was 12.4462; with `CCCN(CCCNc1ccnc2cc(Cl)ccc12)Cc1ccc(CC)cc1` [SJ000523001], 30.1342. Still for that read-out and setting: with `CCCN(CCCNc1ccnc2cc(Cl)ccc12)Cc1nccn1C` [SJ000523002] the figure was 6.351. For `CCCN(CCCNc1ccnc2cc(Cl)ccc12)Cc1cncc(Br)c1` [SJ000523004], the “percent inhibition (TR-FRET)” value under setting [1] was determined as 4.828. In the case of `CCCN(CCCNc1ccnc2cc(Cl)ccc12)Cc1scnc1C` [SJ000523005], the “percent inhibition (TR-FRET)” value under setting [1] is listed as 11.85.

On to `CCCN(CCCNc1ccnc2cc(Cl)ccc12)Cc1cccnc1Br` [SJ000523006], for which, under setting [1], the “percent inhibition (TR-FRET)” value is given as 13.3074. `CCCN(CCCNc1ccnc2cc(Cl)ccc12)Cc1c[nH]c2ccccc12` [SJ000523007]: the “percent inhibition (TR-FRET)” value under setting [1] came to 26.2256. On the same count and under the same terms, the same measure for `CCCN(CCCNc1ccnc2cc(Cl)ccc12)Cc1ncc[nH]1` [SJ000523008]: 4.165; for `CCCN(CCCNc1ccnc2cc(Cl)ccc12)Cc1cnn(C)c1` [SJ000523009]: 10.0613; for `CCCN(CCCNc1ccnc2cc(Cl)ccc12)Cc1[nH]cnc1C` [SJ000523010]: 12.0487. The same measure, in the same setting: with `CCCN(CCCNc1ccnc2cc(Cl)ccc12)Cc1cc(OC(F)(F)F)ccc1OC` [SJ000523011] the figure was 15.666; with `CCCN(CCCNc1ccnc2cc(Cl)ccc12)Cc1cc(C(F)(F)F)ccc1OC` [SJ000523012], 30.3991. Take `CCCN(CCCNc1ccnc2cc(Cl)ccc12)Cc1cccc(C(F)(F)F)c1` [SJ000523013]: the “percent inhibition (TR-FRET)” value under setting [1] came out at 17.481. Still for that read-out and setting: the same measure for `CCCN(CCCNc1ccnc2cc(Cl)ccc12)Cc1cccn1C` [SJ000523014]: 22.7145; for `CCCN(CCCNc1ccnc2cc(Cl)ccc12)CC1CCOC1` (centres unmarked) [SJ000523016]: 9.6638; for `CCCN(CCCCCC(=O)OC)CCCNc1ccnc2cc(Cl)ccc12` [SJ000523017]: 14.3011. On to `CCCN(CCCNc1c2ccc(Cl)cc2nc2ccc(OC)cc12)Cc1ccc(C(=O)OC)cc1` [SJ000523018], for which the “percent inhibition (TR-FRET)” value under setting [2] is -118.624. The same measure, in the same setting: with `CCCN(CCCNc1c2ccc(Cl)cc2nc2ccc(OC)cc12)Cc1ccc(-c2ccccc2[N+](=O)[O-])o1` [SJ000523019] the figure was -102.758; with `CCCN(CCCNc1c2ccc(Cl)cc2nc2ccc(OC)cc12)Cc1ccc(-c2cccc(Cl)c2)o1` [SJ000523020], -169.736.

On to `CCCN(CCCNc1c2ccc(Cl)cc2nc2ccc(OC)cc12)Cc1c(Cl)ccc(Cl)c1Cl` [SJ000523021], for which the “percent inhibition (TR-FRET)” value under setting [1] came out at 40.005.

Consider `CCCN(CCCNc1c2ccc(Cl)cc2nc2ccc(OC)cc12)Cc1ccc([N+](=O)[O-])o1` [SJ000523022], for which, under setting [2], the “percent inhibition (TR-FRET)” value is on record as -329.654. The same measure, in the same setting: the same measure for `COc1ccc2nc3cc(Cl)ccc3c(NCCCNCc3ccncc3)c2c1` [SJ000523023]: -127.586.

As for `COc1ccc2nc3cc(Cl)ccc3c(NCCCNCc3ccccn3)c2c1` [SJ000523024], under setting [2], the “percent inhibition (TR-FRET)” value is -255.258.

For `COc1ccc2nc3cc(Cl)ccc3c(NCCCNCCCSC)c2c1` [SJ000523025], the “percent inhibition (TR-FRET)” value under setting [2] is recorded as -336.863. Consider `COc1ccc2nc3cc(Cl)ccc3c(NCCCNCc3ccsc3)c2c1` [SJ000523026], for which the “percent inhibition (TR-FRET)” value under setting [2] was -353.834. Still for that read-out and setting: with `COc1ccc2nc3cc(Cl)ccc3c(NCCCNCCC(C)c3ccccc3)c2c1` (centres unmarked) [SJ000523027] the figure was -340.253. Consider `COc1ccc2nc3cc(Cl)ccc3c(NCCCNCc3ccc(N(C)C)c4ccccc34)c2c1` [SJ000523028], for which the “percent inhibition (TR-FRET)” value under setting [1] is recorded as -1.532. Regarding `COc1ccc2nc3cc(Cl)ccc3c(NCCCNCc3ccc(C)s3)c2c1` [SJ000523029], the “percent inhibition (TR-FRET)” value under setting [2] is on record as -304.796. In the case of `COc1ccc2nc3cc(Cl)ccc3c(NCCCNCc3ccc(Br)o3)c2c1` [SJ000523030], under setting [2], the “percent inhibition (TR-FRET)” value is given as -219.419. Consider `COc1ccc2nc3cc(Cl)ccc3c(NCCCNCc3ccccc3N)c2c1` [SJ000523031], for which the “percent inhibition (TR-FRET)” value under setting [1] was -57.1504. Turning to `COc1ccc2nc3cc(Cl)ccc3c(NCCCNCc3ccco3)c2c1` [SJ000523032], under setting [2], the “percent inhibition (TR-FRET)” value is -165.325.

With `COc1ccc(CNCCCNc2c3ccc(Cl)cc3nc3ccc(OC)cc23)cc1` [SJ000523033], the “percent inhibition (TR-FRET)” value under setting [2] was -338.862. Still for that read-out and setting: with `COc1ccc2nc3cc(Cl)ccc3c(NCCCNCc3ccccc3F)c2c1` [SJ000523034] the figure was -353.834; with `COc1ccc2nc3cc(Cl)ccc3c(NCCCNCc3ccc(F)cc3)c2c1` [SJ000523035], -398.22. On to `COc1ccc2nc3cc(Cl)ccc3c(NCCCNCc3ccc(Cl)c([N+](=O)[O-])c3)c2c1` [SJ000523036], for which the “percent inhibition (TR-FRET)” value under setting [1] is given as -95.379.

Consider `COc1ccc2nc3cc(Cl)ccc3c(NCCCNCc3cccc(C#N)c3)c2c1` [SJ000523037], for which the “percent inhibition (TR-FRET)” value under setting [2] was -333.152.

Take `COc1ccc2nc3cc(Cl)ccc3c(NCCCNCc3ccc4ccccc4c3)c2c1` [SJ000523038]: the “percent inhibition (TR-FRET)” value under setting [2] was -109.452. As to `CCCN(CCCNc1ccnc2cc(Cl)ccc12)Cc1ccc(-c2ccccc2)cc1` [SJ000523039], the “percent inhibition (TR-FRET)” value under setting [1] came out at 30.2293. As for `CCCN(CCCNc1ccnc2cc(Cl)ccc12)Cc1ccc2ccccc2c1` [SJ000523040], the “percent inhibition (TR-FRET)” value under setting [1] was 32.8503.

`CCCN(CCCNc1ccnc2cc(Cl)ccc12)Cc1cccc(C)c1` [SJ000523041]: the “percent inhibition (TR-FRET)” value under setting [1] was determined as 28.5489. For `CCCN(CCCNc1ccnc2cc(Cl)ccc12)Cc1ccc(C(=O)OC)cc1` [SJ000523042], the “percent inhibition (TR-FRET)” value under setting [1] came to 16.7163. Still for that read-out and setting: with `CCCN(CCCNc1ccnc2cc(Cl)ccc12)Cc1ccc(Cl)cc1Cl` [SJ000523043] the figure was 12.0952; with `CCCN(CCCNc1ccnc2cc(Cl)ccc12)Cc1ccc(-c2ccccc2[N+](=O)[O-])o1` [SJ000523044], 9.266; with `CCCN(CCCNc1ccnc2cc(Cl)ccc12)Cc1ccc(-c2cccc(Cl)c2)o1` [SJ000523045], 16.2262. On the same count and under the same terms, the same measure for `CCCN(CCCNc1ccnc2cc(Cl)ccc12)Cc1c(Cl)ccc(Cl)c1Cl` [SJ000523046]: 17.7459; for `CCCN(CCCNc1ccnc2cc(Cl)ccc12)Cc1ccc([N+](=O)[O-])o1` [SJ000523047]: 9.575; for `CCCCCCN(CCC)CCCNc1ccnc2cc(Cl)ccc12` [SJ000523048]: 1.317. In the case of `Clc1ccc2c(NCCCNCc3ccncc3)ccnc2c1` [SJ000523049], the “percent inhibition (TR-FRET)” value under setting [1] was 6.077.

Values taken from PMC7529893, “Structural basis for substrate recognition and chemical inhibition of oncogenic MAGE ubiquitin ligases” (Nature Communications, 2020).
